*1 amine or outer side, *2 acyl side, *3 side chain or, on linkers, in order; H or OH if unused. Where a SMILES comes first, the peptide text is derived from it. Bridges are numbered along the chain shown (N, C = ends). [ ]: non-standard residue; d: D form. The star is where a group is joined. X1 = CC(C)[C@H](C)[C@@H](C(=O)[*:2])N(C)[*:1]; d(cisHyp) = O=C(O)[C@H]1C[C@@H](O)CN1; Picolinoyl(3-OH) = O=C(c1ncccc1O)*; NMePhg = CN[C@H](C(=O)O)c1ccccc1; Sar = CNCC(=O)O
Test: Feeding trials in animals, growth promotion
Format: in vivo, Mastgeflügel, Schweinen, Mastrindern, Schafen und Kaninchen
Settings: e.g. fattening poultry, pigs, fattening cattle, sheep, rabbits
Text: Dies gilt auch für die einzelnen Komponenten, insbesondere für das Neoviridogrisein IV, für das ein wachstumsfördernder -Effekt bisher nicht beschrieben war. Auch die Legeleistung von Geflügel, insbesondere das Eigewicht und die Milchleistung von Milchkühen, -schafen und -ziegen wird durch den Antibiotikakomplex oder seine einzelnen Komponenten positiv beeinflußt.
Zur Erzielung des Effekts verwendet man Konzentrationen von 2 - 100 ppm, vorzugsweise 2 - 50 ppm, insbesondere 5 - 20 ppm, bezogen auf Alleinfutter. Entsprechend höher sind die Konzentrationen, wenn die Antibiotika als Zusatz zu Beifutter verabreicht werden.

CC(C)C[C@H]1NC(=O)[C@@H](NC(=O)c2ncccc2O)[C@@H](C)OC(=O)[C@H](c2ccccc2)N(C)C(=O)[C@H](C)NC(=O)[C@H]([C@@H](C)C(C)C)N(C)C(=O)CN(C)C(=O)[C@H]2C[C@@H](O)CN2C1=O [Neoviridogrisein IV] ({Picolinoyl(3-OH)}-T[dL][d(cisHyp)][Sar][X1]A[NMePhg]; ester 1-C)
wachstumsfördernde Wirkung: ausgeprägte wachstumsfördernde Wirkung
